This note sets out measurements from US7326732B2, “EP2 receptor agonists” (Pharmagene Laboratories Limited, priority 2004, dated 2008).

One test has as its target T1, human EP2 receptor (Homo sapiens, UniProt P43116).
T1 construct: expressed in transfected cells
Nature of the test: Binding ability to human EP receptors ([3H]PGE2 displacement), EP2. Particulars: membranes expressing human EP2; [3H]PGE2 3 nM; Cheng-Prusoff; read-out: pKi (M) EP2 (converted). As to the method: (§1) Membranes were prepared from cells stably transfected with human EP receptor cDNA. In brief, cells were cultured to confluency, scraped from culture flasks, and centrifuged (800 g, 8 minutes, 4° C.). Cells were twice washed in ice cold homogenisation buffer containing 10 mMTris-HCl, 1 mM EDTA.2Na, 250 mM sucrose, 1 mM PMSF, 0.3 mM indomethacin, pH 7.4, homogenised and re-centrifuged as before. The supernatant was stored on ice and pellets re-homogenised and re-spun. Supernatants were pooled and centrifuged at 40000 g, 10 minutes, 4° C. Resultant membrane pellets were stored at −80° C. until use. For assay, membranes expressing human EP4, EP3, EP2 or EP1 receptors were incubated in Millipore (MHVBN45) plates containing assay buffer, radiolabelled [^3H]PGE2 and 0.1 to 10 000 nM concentrations of compounds. Incubations were performed at suitable temperatures and for suitable times to allow equilibrium to be reached. Non-specific binding was determined in the presence of 10 uM PGE2. Bound and free radiolabel was separated by vacuum manifold filtration using appropriate wash buffers, and bound radiolabel was determined by scintillation counting. Constituents of each of the buffers are included in table 1 below. […] Raven Press, New York, 2nd edition.

In a further test the target is T2, human EP4 receptor (Homo sapiens, UniProt P35408).
T2 construct: expressed in transfected cells
T2 sequence (P35408 whole entry): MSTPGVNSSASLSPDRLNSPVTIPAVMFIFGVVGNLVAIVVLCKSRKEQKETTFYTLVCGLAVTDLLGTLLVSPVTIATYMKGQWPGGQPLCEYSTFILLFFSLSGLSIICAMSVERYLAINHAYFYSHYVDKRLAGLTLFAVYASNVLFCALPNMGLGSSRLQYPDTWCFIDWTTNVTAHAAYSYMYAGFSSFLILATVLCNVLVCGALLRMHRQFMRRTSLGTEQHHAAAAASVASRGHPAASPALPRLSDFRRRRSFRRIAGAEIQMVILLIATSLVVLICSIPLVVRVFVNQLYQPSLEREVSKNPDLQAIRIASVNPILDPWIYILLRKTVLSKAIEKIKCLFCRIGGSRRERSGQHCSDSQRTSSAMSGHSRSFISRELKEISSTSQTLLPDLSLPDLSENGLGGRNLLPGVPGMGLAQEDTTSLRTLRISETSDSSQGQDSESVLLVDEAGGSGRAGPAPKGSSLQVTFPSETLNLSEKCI
Nature of the test: Binding ability to human EP receptors ([3H]PGE2 displacement), EP4. The conditions noted are these: membranes expressing human EP4; [3H]PGE2 1 nM; Cheng-Prusoff; read-out: pKi (M) EP4 (converted). As to the method:
as §1

A further test addresses T3, human EP3 receptor (Homo sapiens, UniProt P43115).
T3 construct: expressed in transfected cells
T3 sequence (P43115 1-390): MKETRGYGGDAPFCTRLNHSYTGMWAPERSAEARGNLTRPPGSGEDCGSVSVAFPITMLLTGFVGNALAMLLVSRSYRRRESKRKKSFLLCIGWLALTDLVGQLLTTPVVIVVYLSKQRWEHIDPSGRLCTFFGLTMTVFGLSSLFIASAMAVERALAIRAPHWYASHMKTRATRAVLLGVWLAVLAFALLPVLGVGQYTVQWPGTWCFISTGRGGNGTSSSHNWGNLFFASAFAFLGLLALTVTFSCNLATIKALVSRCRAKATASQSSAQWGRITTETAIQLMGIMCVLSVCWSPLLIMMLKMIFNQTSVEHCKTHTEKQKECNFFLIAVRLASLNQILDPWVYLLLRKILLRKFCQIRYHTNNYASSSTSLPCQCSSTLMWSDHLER
The test can be described thus: Binding ability to human EP receptors ([3H]PGE2 displacement), EP3. Particulars: membranes expressing human EP3; [3H]PGE2 2.5 nM; Cheng-Prusoff; read-out: pKi (M) EP3 (converted). As for the experimental part: as §1

Test [1] has as its target T4, human EP2 prostanoid receptors (Homo sapiens, UniProt P43116).
T4 construct: expressed in transfected cells; host or cells: HEK-293
Nature of the test: Agonist activity at recombinant human EP2 prostanoid receptors (cAMP in HEK-293 clones). Type of test: cell-based. Particulars: for EC50: HEK-293 stably transfected with human EP2, cAMP accumulation, read-out: pEC50 EP2 (converted); for activity (EP2 part): functional classification at EP2. As for the experimental part:
Culture media was Minimal essential media (MEM), supplemented with 10% foetal bovine serum, 100 U/ml penicillin, […] streptomycin, 2.5 μg/ml fungizone, 2mM glutamine. Cells were cultured to confluency (3-4 days) prior to use. Culture media was removed, and confluent cells washed three times in MEM. […] Cells were then stimulated by the addition of 25 μl of PGE2 or agonists prepared in assay buffer. In antagonist studies, cells were pre-incubated with compounds for 30 minutes prior to PGE2-mediated stimulation Plates were incubated for 15 min at 37° C., before termination of the reaction by the addition of 25 μl 1M HCl. The plate was then frozen at -20° C. overnight before determination of cAMP concentration. Stimulated cAMP levels were determined by radioligand displacement binding. In brief, plates were thawed rapidly in a waterbath, and the samples neutralised by the addition of 25 μl 1M NaOH. 30 μl was transferred to Millipore plates pre-coated with 0.5% Polyethylenimine (PEI). Samples were diluted by addition of 90 μl cAMP determination buffer (50 mM Tris, 5 mM EDTA, pH 7.0). […] 15 μl of 2 nM (final concentration) [^3H] cAMP, and 15 μl of 3'5'-cAMP protein kinase (8 μg/well final concentration) prepared in cAMP determination buffer containing 0.1% BSA, were added to each well. Plates were incubated on ice for 2 hours, before bound and free radiolabel were separated by vacuum filtration harvesting using the Millipore vacuum manifold, using ice cold water as the termination buffer. The sealing mat was removed from the Millipore plates, and the filters allowed to dry overnight. 50 μl Microscint 0 (Packard Bioscience) was added to each well, and the plate counted using the Micro-Beta Trilux topcount ^3H program. cAMP accumulation was determined from the standard curve, and values calculated in pmoles cAMP/well. Antagonists affinities (pA2 values) were determined assuming a slope of unity and the […]-Schild equation, where pA2=log [concentration ratio-1]-log[antagonist].

Each structure is given as a SMILES string.

T1 sequence (P43116 whole entry): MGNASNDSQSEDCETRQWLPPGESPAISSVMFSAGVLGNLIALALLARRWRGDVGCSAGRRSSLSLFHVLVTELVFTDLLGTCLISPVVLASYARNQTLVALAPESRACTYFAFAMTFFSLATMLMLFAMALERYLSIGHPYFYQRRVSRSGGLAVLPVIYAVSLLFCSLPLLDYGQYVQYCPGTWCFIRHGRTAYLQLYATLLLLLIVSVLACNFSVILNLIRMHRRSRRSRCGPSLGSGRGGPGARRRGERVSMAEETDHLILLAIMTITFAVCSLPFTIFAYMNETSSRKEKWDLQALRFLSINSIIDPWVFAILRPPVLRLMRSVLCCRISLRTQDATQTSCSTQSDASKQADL
T4 sequence (P43116 whole entry): as above

`O=C(O)Cc1cccc(NC(=O)c2ccc(-c3cccc4ccccc34)o2)c1` [Compound 31, {3-[(5-Naphthalen-1-yl-furan-2-carbonyl)-amino]-phenyl}-acetic acid]: the figures for the Ki at human EP2 receptor, on human EP4 receptor and on human EP3 receptor were under 1e-06 M, under 1e-06 M and over 1e-05 M, respectively. For the same molecule, the EC50 in test [1] was under 1 µM. In test [1], the “activity (EP2 part)” value is reported as “EP2 agonist”.
In the case of `CC(C)c1cccc(-c2ccc(C(=O)Nc3cccc(CC(=O)O)c3)o2)c1` [Compound 34, (3-{[5-(3-Isopropyl-phenyl)-furan-2-carbonyl]-amino}-phenyl)-acetic acid], the Ki on human EP2 receptor is under 1e-06 M; at human EP4 receptor it was under 1e-06 M; on human EP3 receptor, over 1e-05 M. In test [1], the EC50 was under 1 µM. In test [1], the “activity (EP2 part)” value was “EP2 agonist”.
In the case of `O=C(O)Cc1cccc(NC(=O)c2ccc(-c3ccc4c(c3)OCO4)o2)c1` [Compound 36, {3-[(5-Benzo[1,3]dioxol-5-yl-furan-2-carbonyl)-amino]-phenyl}-acetic acid], the Ki at human EP2 receptor was under 1e-06 M; on human EP4 receptor, over 1e-05 M; on human EP3 receptor, over 1e-05 M. Also, the EC50 in test [1] is under 0.1 µM. For the same molecule, in test [1], the “activity (EP2 part)” value was “EP2 agonist”.
Take `O=C(O)Cc1cccc(NC(=O)c2ccc(-c3cccc(Cl)c3Cl)o2)c1` [Compound 37, (3-{[5-(2,3-Dichloro-phenyl)-furan-2-carbonyl]-amino}-phenyl)-acetic acid]: the Ki at human EP2 receptor was under 1e-06 M; at human EP4 receptor, over 1e-05 M; on human EP3 receptor it was over 1e-05 M. The EC50 in test [1] was under 1 µM. Also, the “activity (EP2 part)” value in test [1] was “EP2 agonist”.
Consider `O=C(O)Cc1cccc(NC(=O)c2ccc(-c3cccc(Cl)c3)o2)c1` [Compound 39, (3-{[5-(3-Chloro-phenyl)-furan-2-carbonyl]-amino}-phenyl)-acetic acid], for which the values for the Ki at human EP2 receptor, on human EP4 receptor and on human EP3 receptor were under 1e-07 M, over 1e-05 M and over 1e-05 M, respectively. In test [1], the EC50 was under 0.1 µM. For the same molecule, the “activity (EP2 part)” value in test [1] is “EP2 agonist”.
`O=C(O)Cc1cccc(NC(=O)c2ccc(-c3ccc(Cl)cc3)o2)c1` [Compound 40, (3-{[5-(4-Chloro-phenyl)-furan-2-carbonyl]-amino}-phenyl)-acetic acid]: the Ki at human EP2 receptor is under 1e-06 M; on human EP4 receptor, over 1e-05 M; at human EP3 receptor, over 1e-05 M. Further, the EC50 in test [1] was under 0.1 µM. Further, the “activity (EP2 part)” value in test [1] is reported as “EP2 agonist”.
As for `O=C(O)Cc1cccc(NC(=O)c2ccc(-c3ccc4[nH]ccc4c3)o2)c1` [Compound 41], the results for the Ki at human EP2 receptor, on human EP4 receptor and at human EP3 receptor were under 1e-06 M, over 1e-05 M and over 1e-05 M, respectively. The EC50 in test [1] is under 1 µM. The “activity (EP2 part)” value in test [1] is on record as “EP2 agonist”.
Regarding `O=C(O)Cc1cccc(NC(=O)c2ccc(-c3ccc(F)cc3)o2)c1` [Compound 42, (3-{[5-(4-Fluoro-phenyl)-furan-2-carbonyl]-amino}-phenyl)-acetic acid], the results for the Ki at human EP2 receptor, on human EP4 receptor and at human EP3 receptor were under 1e-06 M, over 1e-05 M and over 1e-05 M, respectively. The EC50 in test [1] is under 0.1 µM. Further, the “activity (EP2 part)” value in test [1] is “EP2 agonist”.
As to `O=C(O)Cc1cccc(NC(=O)c2cc(-c3ccccc3)ccc2Cl)c1` [Compound 44, {3-[(4-Chloro-biphenyl-3-carbonyl)-amino]-phenyl}-acetic acid], the Ki was under 1e-06 M at human EP2 receptor, over 1e-05 M at human EP4 receptor and over 1e-05 M at human EP3 receptor. Also, the EC50 in test [1] is under 0.1 µM. The “activity (EP2 part)” value in test [1] is listed as “EP2 agonist”.
`O=C(O)Cc1cccc(NC(=O)c2cccc(-c3ccccc3)n2)c1` [Compound 45, {3-[(6-Phenyl-pyridine-2-carbonyl)-amino]-phenyl}-acetic acid]: the Ki on human EP2 receptor is under 1e-06 M; at human EP4 receptor, over 1e-05 M; at human EP3 receptor, over 1e-05 M. Also, the EC50 in test [1] was under 0.1 µM. Moreover, the “activity (EP2 part)” value in test [1] is on record as “EP2 agonist”.
For the molecule `O=C(O)Cc1cccc(NC(=O)c2cccc(-c3ccccc3)c2)c1` [Compound 49, {3-[(Biphenyl-3-carbonyl)-amino]-phenyl}-acetic acid], the Ki is under 1e-06 M at human EP2 receptor, over 1e-05 M at human EP4 receptor and over 1e-05 M on human EP3 receptor. In addition, the EC50 in test [1] was under 0.1 µM. In addition, the “activity (EP2 part)” value in test [1] was “EP2 agonist”.
For `O=C(O)Cc1cccc(NC(=O)c2cc(-c3ccccc3)ccc2F)c1` [Compound 51, {3-[(4-Fluoro-biphenyl-3-carbonyl)-amino]-phenyl}-acetic acid], the Ki on human EP2 receptor was under 1e-06 M; on human EP4 receptor it was over 1e-05 M; at human EP3 receptor it was over 1e-05 M. In addition, the EC50 in test [1] was under 0.1 µM. Besides, the “activity (EP2 part)” value in test [1] is recorded as “EP2 agonist”.
Take `O=C(O)Cc1cccc(NC(=O)c2cc(F)cc(-c3ccccc3)c2)c1` [Compound 52, {3-[(5-fluoro-biphenyl-3-carbonyl)-amino]-phenyl}-acetic acid]: the Ki on human EP2 receptor is under 1e-06 M; on human EP4 receptor it was over 1e-05 M; at human EP3 receptor, over 1e-05 M. Moreover, the EC50 in test [1] was under 0.1 µM. Moreover, the “activity (EP2 part)” value in test [1] is given as “EP2 agonist”.
For the molecule `O=C(O)Cc1cccc(NC(=O)c2csc(-c3ccccc3)n2)c1` [Compound 54, {3-[(2-Phenyl-thiazole-4-carbonyl)-amino]-phenyl}-acetic acid], the Ki is under 1e-06 M on human EP2 receptor, over 1e-05 M at human EP4 receptor and over 1e-05 M at human EP3 receptor. Moreover, the EC50 in test [1] is under 1 µM. Besides, in test [1], the “activity (EP2 part)” value is given as “EP2 agonist”.
For the molecule `O=C(O)c1cccc(CNC(=O)c2ccc(-c3ccccc3)o2)c1` [Compound 57, 3-{[(5-Phenyl-furan-2-carbonyl)-amino]-methyl}-benzoic acid], the Ki on human EP2 receptor is under 1e-05 M; at human EP4 receptor, over 1e-05 M; on human EP3 receptor, over 1e-05 M. Further, the EC50 in test [1] is under 1 µM. For the same molecule, the “activity (EP2 part)” value in test [1] is on record as “EP2 Agonist”.
On to `O=C(O)CCc1cccc(NC(=O)c2ccc(-c3ccccc3)o2)c1` [Compound 62, 3-{3-[(5-Phenyl-furan-2-carbonyl)-amino]-phenyl}-propionic acid], for which the Ki on human EP2 receptor was under 1e-06 M; at human EP4 receptor, over 1e-05 M; at human EP3 receptor, over 1e-05 M. Moreover, in test [1], the EC50 was under 0.1 µM. For the same molecule, the “activity (EP2 part)” value in test [1] was “EP2 agonist”.
Regarding `O=C(O)/C=C/c1cccc(NC(=O)c2ccc(-c3ccc(F)cc3)o2)c1` [Compound 71, 3-(3-{[5-(4-Fluoro-phenyl)-furan-2-carbonyl]-amino}-phenyl)-acrylic acid], the Ki at human EP2 receptor was under 1e-07 M; at human EP4 receptor, over 1e-05 M; at human EP3 receptor, over 1e-05 M. Besides, the “activity (EP2 part)” value in test [1] is reported as “EP2 agonist”.
For the molecule `O=C(Nc1cccc(CCO)c1)c1ccc(-c2ccccc2)o1` [Compound 74], the Ki was under 1e-05 M on human EP2 receptor, over 1e-05 M on human EP4 receptor and over 1e-05 M on human EP3 receptor. The EC50 in test [1] was under 10 µM.
